From ChEMBL document CHEMBL3885861, “Open TG-GATES”

Organism: Rattus norvegicus
Experiment: Open TG-GATES - Regimen: Daily Repeat
Assay type: toxicity, organism-based, Sprague-Dawley
Set-up: regimen Daily Repeat, gender Male, age 6 weeks
Details: in vivo, po, route gavage; for APTT / Bas / Eos / Fbg / Hb / Ht / Lym / MCH / MCHC / MCV / Mono / Neu / PT / Plat / RBC / Ret / WBC: tissue Blood; for KIDNEY_L / KIDNEY_R / KIDNEY_TOTAL: tissue Kidney; for LIVER: tissue Liver; for A/G / ALP / ALT / AST / BUN / CRE / Ca / Cl / DBIL / GLC / IP / K / LDH / Na / PL / RALB / TBIL / TC / TG / TP / gamma-GTP: tissue Plasma
[1] = 0 mg/kg, 72 h, dose level Control, time 3 day
[2] = 0 mg/kg, […], dose level Control, time 7 day
[3] = 0 mg/kg, […], dose level Control, time 14 day
[4] = 0 mg/kg, […], dose level Control, time 28 day
[5] = 30 mg/kg, 72 h, dose level Low, time 3 day
[6] = 30 mg/kg, […], dose level Low, time 7 day
[7] = 30 mg/kg, […], dose level Low, time 14 day
[8] = 30 mg/kg, […], dose level Low, time 28 day

## C[C@]12CCC(=O)C=C1CC[C@@H]1[C@@H]2CC[C@@]2(C)[C@H]1CC[C@]2(C)O [METHYLTESTOSTERONE]
[1]
  TERMINAL_BW: 237.3 g
  APTT: 16.2 s
  Bas: 0%
  Eos: 1.2%
  Fbg: 280 mg/dL
  Hb: 13.4 g/dL
  Ht: 38.9%
  Lym: 78.4%
  MCH: 21.6 pg
  MCHC: 34.4%
  MCV: 62.7 fL
  Mono: 2.4%
  Neu: 17.4%
  PT: 12.9 s
  Plat: 119.6 x10_4/uL
  RBC: 619.6 x10_4/ul
  Ret: 6.7%
  WBC: 73.9 x10_2/uL
  KIDNEY_L: 1 g
  KIDNEY_R: 1 g
  KIDNEY_TOTAL: 2 g
  LIVER: 10.9 g
  A/G: 0.9
  ALP: 1982.8 IU/L
  ALT: 45.6 IU/L
  AST: 73.2 IU/L
  BUN: 15.2 mg/dL
  CRE: 0.2 mg/dL
  Ca: 10.9 mg/dL
  Cl: 108.2 meq/L
  DBIL: 0.014 mg/dL
  GLC: 186.4 mg/dL
  IP: 7.5 mg/dL
  K: 4.2 meq/L
  LDH: 54.4 IU/L
  Na: 142.6 meq/L
  PL: 142.8 mg/dL
  RALB: 2.6 g/dL
  TBIL: 0.028 mg/dL
  TC: 77.8 mg/dL
  TG: 87.2 mg/dL
  TP: 5.6 g/dL
  gamma-GTP: 1 IU/L
[2]
  TERMINAL_BW: 278.3 g
  APTT: 16.6 s
  Bas: 0%
  Eos: 0.8%
  Fbg: 272 mg/dL
  Hb: 13.4 g/dL
  Ht: 39%
  Lym: 81.8%
  MCH: 21.4 pg
  MCHC: 34.3%
  MCV: 62.6 fL
  Mono: 2.2%
  Neu: 15%
  PT: 13.1 s
  Plat: 136.7 x10_4/uL
  RBC: 623.8 x10_4/ul
  Ret: 5.6%
  WBC: 87.3 x10_2/uL
  KIDNEY_L: 1.2 g
  KIDNEY_R: 1.1 g
  KIDNEY_TOTAL: 2.3 g
  LIVER: 12.2 g
  A/G: 0.9
  ALP: 1755.8 IU/L
  ALT: 41.2 IU/L
  AST: 71.6 IU/L
  BUN: 16.4 mg/dL
  CRE: 0.2 mg/dL
  Ca: 11 mg/dL
  Cl: 104.8 meq/L
  DBIL: 0.018 mg/dL
  GLC: 192.4 mg/dL
  IP: 7.5 mg/dL
  K: 4 meq/L
  LDH: 68.4 IU/L
  Na: 142 meq/L
  PL: 136.4 mg/dL
  RALB: 2.7 g/dL
  TBIL: 0.028 mg/dL
  TC: 73 mg/dL
  TG: 100.6 mg/dL
  TP: 5.8 g/dL
  gamma-GTP: 1.2 IU/L
[3]
  TERMINAL_BW: 322 g
  APTT: 15.9 s
  Bas: 0.2%
  Eos: 1%
  Fbg: 288.4 mg/dL
  Hb: 14.7 g/dL
  Ht: 42.6%
  Lym: 80.6%
  MCH: 20.7 pg
  MCHC: 34.6%
  MCV: 59.8 fL
  Mono: 2.6%
  Neu: 15.4%
  PT: 12.8 s
  Plat: 112.1 x10_4/uL
  RBC: 713 x10_4/ul
  Ret: 3.6%
  WBC: 88 x10_2/uL
  KIDNEY_L: 1.2 g
  KIDNEY_R: 1.2 g
  KIDNEY_TOTAL: 2.5 g
  LIVER: 13.6 g
  A/G: 0.8
  ALP: 1238.8 IU/L
  ALT: 51.8 IU/L
  AST: 71.4 IU/L
  BUN: 16.4 mg/dL
  CRE: 0.2 mg/dL
  Ca: 10.6 mg/dL
  Cl: 105.8 meq/L
  DBIL: 0.018 mg/dL
  GLC: 187 mg/dL
  IP: 7 mg/dL
  K: 4.2 meq/L
  LDH: 96.2 IU/L
  Na: 141.6 meq/L
  PL: 144 mg/dL
  RALB: 2.7 g/dL
  TBIL: 0.032 mg/dL
  TC: 75.6 mg/dL
  TG: 127 mg/dL
  TP: 5.9 g/dL
  gamma-GTP: 1.2 IU/L
[4]
  TERMINAL_BW: 397.8 g
  APTT: 17.5 s
  Bas: 0%
  Eos: 1.2%
  Fbg: 269.8 mg/dL
  Hb: 15.7 g/dL
  Ht: 44.4%
  Lym: 78.2%
  MCH: 19.7 pg
  MCHC: 35.4%
  MCV: 55.9 fL
  Mono: 2%
  Neu: 17.6%
  PT: 13.5 s
  Plat: 106.1 x10_4/uL
  RBC: 794.6 x10_4/ul
  Ret: 2.1%
  WBC: 94.3 x10_2/uL
  KIDNEY_L: 1.4 g
  KIDNEY_R: 1.4 g
  KIDNEY_TOTAL: 2.8 g
  LIVER: 14.9 g
  A/G: 0.8
  ALP: 1136 IU/L
  ALT: 37.8 IU/L
  AST: 62.2 IU/L
  BUN: 16.4 mg/dL
  CRE: 0.2 mg/dL
  Ca: 11.3 mg/dL
  Cl: 105.4 meq/L
  DBIL: 0.016 mg/dL
  GLC: 182.6 mg/dL
  IP: 6.2 mg/dL
  K: 3.9 meq/L
  LDH: 59.8 IU/L
  Na: 143 meq/L
  PL: 127.8 mg/dL
  RALB: 2.8 g/dL
  TBIL: 0.03 mg/dL
  TC: 63.4 mg/dL
  TG: 120.6 mg/dL
  TP: 6.2 g/dL
  gamma-GTP: 0.8 IU/L
[5]
  TERMINAL_BW: 237.2 g
  APTT: 15.8 s
  Bas: 0%
  Eos: 1.2%
  Fbg: 296.2 mg/dL
  Hb: 13.3 g/dL
  Ht: 38.8%
  Lym: 75.2%
  MCH: 21.5 pg
  MCHC: 34.2%
  MCV: 63 fL
  Mono: 2.6%
  Neu: 20.8%
  PT: 12.8 s
  Plat: 111.2 x10_4/uL
  RBC: 617 x10_4/ul
  Ret: 6.6%
  WBC: 57.6 x10_2/uL
  KIDNEY_L: 1 g
  KIDNEY_R: 1 g
  KIDNEY_TOTAL: 2 g
  LIVER: 11.1 g
  A/G: 0.9
  ALP: 1870.2 IU/L
  ALT: 45.4 IU/L
  AST: 69.6 IU/L
  BUN: 15 mg/dL
  CRE: 0.2 mg/dL
  Ca: 11 mg/dL
  Cl: 107.6 meq/L
  DBIL: 0.018 mg/dL
  GLC: 195 mg/dL
  IP: 7.9 mg/dL
  K: 4.1 meq/L
  LDH: 58.2 IU/L
  Na: 144 meq/L
  PL: 144 mg/dL
  RALB: 2.7 g/dL
  TBIL: 0.03 mg/dL
  TC: 67.2 mg/dL
  TG: 123.6 mg/dL
  TP: 5.8 g/dL
  gamma-GTP: 1.4 IU/L
[6]
  TERMINAL_BW: 271.8 g
  APTT: 16.5 s
  Bas: 0%
  Eos: 1%
  Fbg: 308.4 mg/dL
  Hb: 13.1 g/dL
  Ht: 38.1%
  Lym: 76.8%
  MCH: 21 pg
  MCHC: 34.4%
  MCV: 61 fL
  Mono: 3%
  Neu: 18.6%
  PT: 13 s
  Plat: 111.9 x10_4/uL
  RBC: 625.6 x10_4/ul
  Ret: 5.8%
  WBC: 78.3 x10_2/uL
  KIDNEY_L: 1.1 g
  KIDNEY_R: 1.1 g
  KIDNEY_TOTAL: 2.3 g
  LIVER: 12.5 g
  A/G: 0.9
  ALP: 1824.8 IU/L
  ALT: 46.8 IU/L
  AST: 75.2 IU/L
  BUN: 15 mg/dL
  CRE: 0.2 mg/dL
  Ca: 10.9 mg/dL
  Cl: 106 meq/L
  DBIL: 0.02 mg/dL
  GLC: 190.4 mg/dL
  IP: 7.6 mg/dL
  K: 4.1 meq/L
  LDH: 63.6 IU/L
  Na: 142.4 meq/L
  PL: 133 mg/dL
  RALB: 2.7 g/dL
  TBIL: 0.026 mg/dL
  TC: 54.6 mg/dL
  TG: 133 mg/dL
  TP: 5.8 g/dL
  gamma-GTP: 1.2 IU/L
[7]
  TERMINAL_BW: 329.8 g
  APTT: 17.7 s
  Bas: 0.2%
  Eos: 1%
  Fbg: 289.2 mg/dL
  Hb: 14.4 g/dL
  Ht: 41.7%
  Lym: 79.2%
  MCH: 20.6 pg
  MCHC: 34.6%
  MCV: 59.6 fL
  Mono: 2.4%
  Neu: 16%
  PT: 13.3 s
  Plat: 114.4 x10_4/uL
  RBC: 700.2 x10_4/ul
  Ret: 3.9%
  WBC: 96.1 x10_2/uL
  KIDNEY_L: 1.3 g
  KIDNEY_R: 1.2 g
  KIDNEY_TOTAL: 2.5 g
  LIVER: 14.5 g
  A/G: 0.8
  ALP: 1301 IU/L
  ALT: 49.8 IU/L
  AST: 72.8 IU/L
  BUN: 16.4 mg/dL
  CRE: 0.2 mg/dL
  Ca: 10.5 mg/dL
  Cl: 106.8 meq/L
  DBIL: 0.02 mg/dL
  GLC: 192.6 mg/dL
  IP: 7.1 mg/dL
  K: 4 meq/L
  LDH: 132.6 IU/L
  Na: 142.2 meq/L
  PL: 134.2 mg/dL
  RALB: 2.7 g/dL
  TBIL: 0.026 mg/dL
  TC: 54 mg/dL
  TG: 178.6 mg/dL
  TP: 5.9 g/dL
  gamma-GTP: 1.2 IU/L
[8]
  TERMINAL_BW: 409.3 g
  APTT: 19.2 s
  Bas: 0%
  Eos: 1.4%
  Fbg: 300.2 mg/dL
  Hb: 15.7 g/dL
  Ht: 44.9%
  Lym: 75.8%
  MCH: 19.5 pg
  MCHC: 35%
  MCV: 55.6 fL
  Mono: 2.6%
  Neu: 20.2%
  PT: 13.1 s
  Plat: 101.6 x10_4/uL
  RBC: 809.2 x10_4/ul
  Ret: 2.2%
  WBC: 84 x10_2/uL
  KIDNEY_L: 1.4 g
  KIDNEY_R: 1.4 g
  KIDNEY_TOTAL: 2.9 g
  LIVER: 17.1 g
  A/G: 0.8
  ALP: 1236.2 IU/L
  ALT: 43.6 IU/L
  AST: 66.8 IU/L
  BUN: 16.6 mg/dL
  CRE: 0.2 mg/dL
  Ca: 11.1 mg/dL
  Cl: 105.2 meq/L
  DBIL: 0.022 mg/dL
  GLC: 192 mg/dL
  IP: 6.7 mg/dL
  K: 3.9 meq/L
  LDH: 76.6 IU/L
  Na: 143.6 meq/L
  PL: 141.4 mg/dL
  RALB: 2.9 g/dL
  TBIL: 0.034 mg/dL
  TC: 56.2 mg/dL
  TG: 214 mg/dL
  TP: 6.3 g/dL
  gamma-GTP: 1 IU/L
